In one series the test system is MCF7. As to the kind of experiment: Cytotoxicity against human MCF7 cells after 48 hrs by MTT assay. The following applies: MCF7, 48 h. It counts as cell-based. (In general: Formazan colour is commonly taken as a measure of viable cells.)
For series [1], the system named is Mus musculus. Kind of series: Anticonvulsant activity against maximal electroshock-induced seizures in ip dosed mouse assessed as protection against hind limb tonic extension incubated for 30 mins prior to 60 Hz maximal electroshock challenge measured for 30 s. It counts as functional. Conditions: Hindlimb.
Series [2] can be described thus: Neurotoxicity in ip dosed mouse assessed as minimal motor impairment measured for 1 min by rotarod test. Conditions: in vivo. It counts as toxicity, organism-based.
Series [3] is described as follows: Protective index, ratio of TD50 for ip dosed mouse neurotoxicity to ED50 for protection against 60 Hz electroshock-induced seizure in ip dosed mouse. It counts as toxicity, organism-based. The following applies: in vivo, read-out: Ratio TD50/ED50.
Series [4] is described as follows: Protective index, ratio of TD50 for ip dosed mouse neurotoxicity to ED50 for protection against PTZ-induced seizure in ip dosed mouse. It counts as toxicity, organism-based. The following applies: in vivo, read-out: Ratio TD50/ED50.
The test system of series [5] is Mus musculus. Kind of series: Anticonvulsant activity against pentylenetetrazole-induced seizures in ip dosed mouse incubated for 30 mins prior to pentylenetetrazole challenge measured after 30 mins. It counts as functional.
Another series concerns MDA-MB-231. Kind of series: Cytotoxicity against human MDA-MB-231 cells after 48 hrs by MTT assay. It counts as cell-based. Conditions: MDA-MB-231, 48 h.
The next series has as its system T47D. Kind of series: Cytotoxicity against human T47D cells after 48 hrs by MTT assay. It counts as cell-based.
In series [6] the test system is Mus musculus. Kind of series: Potency index, ratio of phenobarbital ED50 to compound ED50 for protection against maximal electroshock-induced seizures in ip dosed mouse. It counts as functional.
The test system of series [7] is Mus musculus. As to the kind of experiment: Anticonvulsant activity against pentylenetetrazole-induced seizures in mouse at 1 to 10 mg/kg, ip incubated for 30 mins prior to PTZ challenge measured after 30 mins in presence of benzodiazepine receptor antagonist flumazenil. It counts as functional, organism-based.

This note sets out measurements from ChEMBL document CHEMBL3774365, “Design, synthesis, pharmacological evaluation, and docking study of new acridone-based 1,2,4-oxadiazoles as potential anticonvulsant agents” (Eur J Med Chem, 2016).

A word on the IC50: it is the concentration that gives 50% inhibition. Read a low IC50 as higher potency. The ED50 is the midpoint of the dose-response relation. By TD50 is commonly meant the 50% point of the dose-response relation for the toxic effect studied.

Each structure is given as a SMILES string. Active and inactive are the calls of the source. The rule behind the calls is not given here. Bounds are passed on as bounds.

For the compound `O=c1c2ccccc2n(Cc2nc(-c3ccc(Cl)cc3)no2)c2ccc(Br)cc12`, the IC50 with MCF7, in the series with MDA-MB-231 and in the series on T47D was greater than 50 µM each time. In addition, the 50% effective dose (ED50) in the series on Mus musculus [1] was found to be 2.87 mg/kg; in the series with Mus musculus [5] it was 7.57 mg/kg. For the same compound, the TD50 at 1 min in series [2] was 512 mg/kg. Moreover, the selectivity ratio in series [3] stood at 178; in series [4], 67.6. Further, the “Ratio ED50” value in the series on Mus musculus [6] came to 7.
Take `COc1ccc(-c2noc(Cn3c4ccccc4c(=O)c4cc(Cl)ccc43)n2)cc1`: the half-inhibitory concentration (IC50) in the series with MCF7, in the series with MDA-MB-231 and in the series with T47D was greater than 50 µM each time. Besides, the figures for the median effective dose (ED50) in the series on Mus musculus [1] and in the series with Mus musculus [5] were 3.71 mg/kg and 2.08 mg/kg, respectively. Also, the TD50 at 1 min in [2] worked out at 438 mg/kg. The result in the series with Mus musculus [7] was inactive. The results for the selectivity ratio in [3] and in [4] were 118 and 211, respectively.
On to `COc1ccc2c(c1)c(=O)c1ccccc1n2Cc1nc(-c2ccc(C)cc2)no1`, for which the IC50 in the series with MCF7, with MDA-MB-231 and in the series with T47D was greater than 50 µM each time. The median effective dose (ED50) came out at 3.25 mg/kg with Mus musculus [1] and 6.32 mg/kg in the series with Mus musculus [5]. For the same compound, in series [2], the TD50 at 1 min came out at 522 mg/kg. The selectivity ratio in series [3] came out at 160; in series [4], 82.4.
As to `COc1ccc2c(c1)c(=O)c1ccccc1n2Cc1nc(-c2ccc(Cl)cc2)no1`, the IC50 with MCF7, with MDA-MB-231 and in the series on T47D was greater than 50 µM each time. For the same compound, the ED50 with Mus musculus [1] stood at 3.68 mg/kg; in the series on Mus musculus [5], 5.22 mg/kg. In addition, the TD50 at 1 min in [2] came to 553 mg/kg. Besides, the selectivity ratio in series [3] came out at 150; in series [4], 106.
As to `CCC1(c2ccccc2)C(=O)NC(=O)NC1=O` [PHENOBARBITAL], the figures for the ED50 with Mus musculus [1] and in the series on Mus musculus [5] were 20.6 mg/kg and 12.4 mg/kg, respectively. Also, the TD50 at 1 min in series [2] was 68.9 mg/kg. Besides, the values for the selectivity ratio in series [3] and in series [4] were 3.3 and 5.5, respectively.
Turning to `Cc1ccc(-c2noc(Cn3c4ccccc4c(=O)c4cc(Br)ccc43)n2)cc1`, the half-inhibitory concentration (IC50) with MCF7, in the series on MDA-MB-231 and in the series on T47D was greater than 50 µM throughout. Besides, the ED50 is 5.12 mg/kg in the series with Mus musculus [1] and greater than 50 mg/kg in the series on Mus musculus [5]. Further, the TD50 at 1 min in series [2] was 594 mg/kg. Moreover, the values for the selectivity ratio in [3] and in [4] were 116 and less than 11.9, respectively.
On to `CCc1ccc2c(c1)c(=O)c1ccccc1n2Cc1nc(-c2ccc(C)cc2)no1`, for which the concentration for half-maximal inhibition (IC50) in the series on MCF7, in the series on MDA-MB-231 and with T47D was greater than 50 µM throughout. The median effective dose (ED50) with Mus musculus [1] was 8.31 mg/kg; in the series on Mus musculus [5], 18.9 mg/kg. Also, the TD50 at 1 min in [2] came to 496 mg/kg. Further, the selectivity ratio is 59.6 in [3] and 26.1 in [4].
With `Cc1ccc(-c2noc(Cn3c4ccccc4c(=O)c4cc(Cl)ccc43)n2)cc1`, the IC50 in the series on MCF7, with MDA-MB-231 and in the series with T47D was greater than 50 µM in each case. Moreover, the figures for the ED50 in the series on Mus musculus [1] and with Mus musculus [5] were 2.24 mg/kg and 6.25 mg/kg, respectively. For the same compound, in [2], the TD50 at 1 min stood at 483 mg/kg. In addition, the results for the selectivity ratio in series [3] and in series [4] were 216 and 77.3, respectively. The “Ratio ED50” value in the series on Mus musculus [6] was determined as 7.
As for `COc1ccc(-c2noc(Cn3c4ccccc4c(=O)c4cc(Br)ccc43)n2)cc1`, the concentration for half-maximal inhibition (IC50) with MCF7, in the series on MDA-MB-231 and in the series with T47D was greater than 50 µM throughout. Further, the median effective dose (ED50) in the series on Mus musculus [1] was found to be 8.71 mg/kg; in the series on Mus musculus [5], 6.21 mg/kg. Moreover, the TD50 at 1 min in series [2] came out at 471 mg/kg. The selectivity ratio in series [3] is 54.1; in series [4], 75.8.
Consider `COc1ccc(-c2noc(Cn3c4ccccc4c(=O)c4cc(OC)ccc43)n2)cc1`, for which the IC50 in the series on MCF7, in the series with MDA-MB-231 and in the series with T47D was greater than 50 µM in each case. Also, the 50% effective dose (ED50) in the series with Mus musculus [1] amounted to 2.42 mg/kg; with Mus musculus [5], 2.12 mg/kg. For the same compound, the TD50 at 1 min in [2] worked out at 462 mg/kg. Further, the selectivity ratio in [3] worked out at 191; in series [4], 217. In addition, the “Ratio ED50” value in the series with Mus musculus [6] turned out to be 7.
With `Cc1ccc(-c2noc(Cn3c4ccccc4c(=O)c4cc(C)ccc43)n2)cc1`, the IC50 in the series with MCF7, with MDA-MB-231 and with T47D was greater than 50 µM in each case. Further, the 50% effective dose (ED50) with Mus musculus [1] is 2.77 mg/kg; in the series with Mus musculus [5] it was greater than 50 mg/kg. Besides, in [2], the TD50 at 1 min came to 542 mg/kg. For the same compound, the results for the selectivity ratio in [3] and in series [4] were 196 and less than 10.8, respectively. The “Ratio ED50” value with Mus musculus [6] was determined as 7.
In the case of `O=c1c2ccccc2n(Cc2nc(-c3ccc(Cl)cc3)no2)c2ccc(Cl)cc12`, the IC50 with MCF7, with MDA-MB-231 and in the series on T47D was greater than 50 µM throughout. For the same compound, the 50% effective dose (ED50) with Mus musculus [1] turned out to be 2.64 mg/kg; in the series with Mus musculus [5], 4.16 mg/kg. Moreover, the TD50 at 1 min in [2] stood at 454 mg/kg. The selectivity ratio in series [3] was 172; in series [4] it was 109. Besides, in the series on Mus musculus [6], the “Ratio ED50” value came to 7.
For `Cc1ccc(-c2noc(Cn3c4ccccc4c(=O)c4ccccc43)n2)cc1`, the half-inhibitory concentration (IC50) in the series with MCF7, in the series with MDA-MB-231 and in the series on T47D was greater than 50 µM in each case. The ED50 came out at 2.52 mg/kg in the series on Mus musculus [1] and 6.37 mg/kg in the series on Mus musculus [5]. Further, the TD50 at 1 min in series [2] is 538 mg/kg. Also, the selectivity ratio amounted to 214 in series [3] and 84.5 in [4]. Also, in the series on Mus musculus [6], the “Ratio ED50” value is listed as 7.
`Cc1ccc2c(c1)c(=O)c1ccccc1n2Cc1nc(-c2ccc(Cl)cc2)no1`: the half-inhibitory concentration (IC50) with MCF7, in the series with MDA-MB-231 and in the series on T47D was greater than 50 µM each time. For the same compound, the figures for the ED50 in the series with Mus musculus [1] and in the series on Mus musculus [5] were 6.53 mg/kg and 15.2 mg/kg, respectively. For the same compound, the TD50 at 1 min in [2] turned out to be 475 mg/kg. In addition, the values for the selectivity ratio in series [3] and in series [4] were 72.7 and 31.3, respectively.
Turning to `COc1cc([C@@H]2c3cc4c(cc3[C@@H](O[C@@H]3O[C@@H]5CO[C@@H](C)O[C@H]5[C@H](O)[C@H]3O)[C@H]3COC(=O)[C@H]23)OCO4)cc(OC)c1O` [ETOPOSIDE], the figures for the IC50 with MDA-MB-231 and in the series with T47D were 15.7 µM and 11.8 µM, respectively.
Consider `CN1C(=O)CN=C(c2ccccc2)c2cc(Cl)ccc21` [DIAZEPAM], for which the figures for the median effective dose (ED50) in the series on Mus musculus [1] and in the series on Mus musculus [5] were 0.98 mg/kg and 0.68 mg/kg, respectively.
As for `O=c1c2ccccc2n(Cc2nc(-c3ccc(Cl)cc3)no2)c2ccccc12`, the concentration for half-maximal inhibition (IC50) in the series on MCF7, in the series on MDA-MB-231 and in the series with T47D was greater than 50 µM each time. In addition, the values for the ED50 in the series on Mus musculus [1] and in the series on Mus musculus [5] were 3.57 mg/kg and 5.78 mg/kg, respectively. Moreover, the TD50 at 1 min in series [2] was determined as 528 mg/kg. Moreover, the values for the selectivity ratio in series [3] and in series [4] were 148 and 91.3, respectively.
